In article PMC8395335, “Serotonergic–Muscarinic Interaction within the Prefrontal Cortex as a Novel Target to Reverse Schizophrenia-Related Cognitive Symptoms” (International Journal of Molecular Sciences, 2021):
Like-named read-outs stand apart in the source and are kept apart here.

Legend:
MK-801-treated mice = assay: Novel object recognition (NOR) test, MK-801-induced deficits; assay type: in vivo; details: for Reversal of MK-801-induced disruptions in NOR test by combined administration: 7 days; for Effect of top dose on MK-801-induced deficits in the NOR test / Effect of combined administration on MK-801-induced memory deficits in the NOR test: acute; for Effect of top dose on MK-801-induced deficits in the NOR test: 5 mg/kg i.p., alone; for Effect of combined administration on MK-801-induced memory deficits in the NOR test: subeffective doses
Description: Drugs were administered on two different schedules: (1) acute administration of compounds 45 min (WAY100635—5-HT1A antagonist) or 30 min (VU0357017, VU152100, VU0238429, and F15599) before MK-801 (also administered once 30 min before the test in Y-maze or T1 in NOR test); and (2) prolonged administration (once per day for 7 consecutive days) of the compounds and MK-801 with the last administration 24 h before the test (NOR test) or at the day of the test (Y-maze). […] Schedules of administration are presented graphically in Figure 2. The subeffective doses of the compounds for acute administration in the NOR test were chosen based on our previous research (see: [22, 23]) while dose-dependent studies of the activity of the compounds in reversing disruptions in the Y-maze or after prolonged administration along with MK-801 were performed within this study. Different vehicles were used throughout the study: (1) 0.9% NaCl and (2) 10% Tween 80. Vehicles were administered to all animals (e.g., control mice and MK-801-treated mice) on the same schedule as drugs were administered to the appropriate drug-treated groups of mice. Neither solvent exerted effects on animal behavior.
Male Albino Swiss mice (Charles River, Sulzfeld, Germany) weighing 20–25 g at the beginning of the experiments were used in the studies. The animals were housed in a room with a 12:12 h light-dark cycle at a temperature of 22 ± 1 °C with food and water available ad libitum. The experimental groups consisted of 8–10 animals. All drugs were administered intraperitoneally (i.p.) at a volume of 10 mL/kg. The behavioral experiments were performed by an observer who was blinded to the treatment. The procedures were conducted in accordance with the European Communities Council Directive of 22 September 2010 (2010/63/EU) and Polish legislation acts concerning animal experimentation and were approved by the II Local Ethics Committee by the Maj Institute of Pharmacology, Polish Academy of Sciences in Krakow (15/2020, 240/2020).
In acute experiments, the tested compounds (alone or in combination) were administered 30 min before MK-801 (0.3 mg/kg), which was administered 30 min before the test or training trial (T1) in the NOR test. In chronic experiments, the tested compounds (alone or in combination) and MK-801 were administered for seven days. Behavioral tests were performed on the eighth day.
The NOR test was performed as described previously. Briefly, the habituation, training and test trial were carried out in a dark room in a black, plastic rectangular arena illuminated with a 355 lux bulb. During the habituation trial, the animals were allowed to explore the arena in the absence of objects (10 min/day for 2 days). The next day, the training (T1) and test (T2) trials were performed. Throughout T1, mice were allowed to freely explore two identical objects (5 min), one of which was subsequently replaced by a novel object in T2 (1 h later, 5 min of exploration). Time spent exploring (i.e., sniffing or touching) the familiar (Tfamiliar) or novel object (Tnovel) was measured by a trained observer, and then the recognition index was calculated for each mouse [(Tnovel − Tfamiliar)/(Tfamiliar + Tnovel)] × 100.

[1] = Pharmacokinetic analysis of drug-drug interactions (plasma, FC concentration, FC penetration); assay type: in vivo, mice; details: for Kp at 30 min / concentration at 30 min: Albino Swiss, mouse, intraperitoneal; for Kp at 30 min: frontal cortex/plasma; for Decrease of FC penetration after acute concomitant administration with F15599: subeffective doses, compared to top dose alone; for Decrease of FC penetration after prolonged administration compared to acute: top doses alone, animals treated with MK-801
Description: The experiment was performed using the methods described by Bridges et al. and in our previous studies.
The pharmacokinetic analysis was performed in the blood and prefrontal cortex. […] Plasma and FC samples were stored at −80 °C until analysis.
The investigated compounds were administered alone at the top dose (F15599—0.1 mg/kg, VU0357017—5 mg/kg, VU0152100—1 mg/kg, and VU0238429—5 mg/kg) and in combinations of muscarinic ligands at subeffective doses with F15599 at subeffective dose (F15599 + VU0357017 0.05 and 0.15 mg/kg, F15599 + VU0152100 0.05 and 0.05 mg/kg, F15599 + VU0238429 0.05 and 1 mg/kg). The FC and blood were collected on the eighth day, 30 min after administration. All mice were parallelly treated with MK-801 (0.3 mg/kg) for seven consecutive days.
On the day of analysis, frozen whole mouse brain tissues were weighed and homogenized in 1:2 (w/v) volumes of ice-cold acetonitrile containing 0.1% FA and the internal standard mix. Samples were homogenized using a Metal Bead Lysing Matrix, vortexed for 1 min, shaken for 20 min at 4 °C on Thermomixer C, and centrifuged at 14,000× g rpm for 20 min at 4 °C. Finally, 50 µL of supernatant were diluted with 0.1% FA in water (1:1, v/v) and analyzed using HPLC/MS/MS.
The sample extraction of plasma (20 μL) was performed after spiking with the internal standard mix using the protein precipitation method and three volumes of ice-cold acetonitrile containing 0.1% formic acid. The extract was vortexed, incubated on ice for 20 min and centrifuged at 14,000× g rpm for 20 min at 4 °C. The supernatant was diluted with 0.1% FA in water (1:1, v/v) and analyzed by means of HPLC/MS/MS using a QTRAP 4500 (AB Sciex) mass spectrometer in positive ion mode in Multiple Reaction Monitoring (MRM screening) coupled with UHPLC (NEXERA XR, Shimadzu). Chromatographic separation was achieved on a Synergi 4 µm Fusion-RP 80 A 50 × 2 mm (Phenomenex) column at a flow rate of 0.2 mL/min. The gradient program was as follows: 20% B (0.3 min), 20–100% B (1.7 min), 100% B (3 min), 100–20% B (0.1 min), 20% B (2 min), solvent A (95:5:0.1% formic acid in water:methanol) and solvent B (methanol containing 0.1% formic acid). The column temperature was set to 40 °C. Analyst software was used to control the instrument and collect data. The ion transfer tube temperature was 300 °C. The spray voltage, collision energy, declastering potential, and gas parameters were optimized to achieve the maximal response using the test compounds. Selected reaction monitoring was carried out using the transition parameters. Calibration curves were constructed, and a linear response was obtained in the range of 0.25–500 ng/mL (VU357017, VU0152100, and F15599) and 1.25–2500 ng/mL (VU0238429) by spiking known amounts of each compound in blank brain homogenates and plasma. For VU0357017 and F15599 IS VU0152100 was used as internal standard. Sample concentration of internal standard was 100 ng/mL for IS VU0238429 and 50 ng/mL for IS VU0152100.
Brain penetration was calculated as FC/plasma ratio × 100%.

[2] = acute, top doses alone (VU0357017 5, VU0152100 1, VU0238429 5, F15599 0.1 mg/kg), 30 min after administration, read-out: PFC Penetration (FC/plasma ratio x 100%)
[3] = chronic (7 days with MK-801), top doses alone (VU0357017 5, VU0152100 1, VU0238429 5, F15599 0.1 mg/kg), read-out: PFC Penetration (FC/plasma ratio x 100%)
[4] = plasma, acute, top doses alone (VU0357017 5, VU0152100 1, VU0238429 5, F15599 0.1 mg/kg), 30 min after administration, read-out: Plasma
[5] = plasma, chronic (7 days with MK-801), top doses alone (VU0357017 5, VU0152100 1, VU0238429 5, F15599 0.1 mg/kg), read-out: Plasma
[6] = prefrontal cortex (FC), acute, top doses alone (VU0357017 5, VU0152100 1, VU0238429 5, F15599 0.1 mg/kg), 30 min after administration, read-out: PFC
[7] = prefrontal cortex (FC), chronic (7 days with MK-801), top doses alone (VU0357017 5, VU0152100 1, VU0238429 5, F15599 0.1 mg/kg), read-out: PFC
[8] = acute, top doses alone (VU0357017 5, VU0152100 1, VU0238429 5, F15599 0.1 mg/kg), 30 min after administration
[9] = chronic (7 days with MK-801), top doses alone (VU0357017 5, VU0152100 1, VU0238429 5, F15599 0.1 mg/kg)

| Structure (SMILES) | Effect of top dose on MK-801-induced deficits in the NOR test (MK-801-treated mice) | Kp at 30 min [1, 2] | Kp at 30 min [1, 3] | concentration at 30 min [1, 4] | concentration at 30 min [1, 5] | concentration at 30 min [1, 6] | concentration at 30 min [1, 7] | PFC Penetration (FC/plasma ratio x 100%) [1, 8] | PFC Penetration (FC/plasma ratio x 100%) [1, 9] | Decrease of FC penetration after acute concomitant administration with F15599 [1] | Decrease of FC penetration after prolonged administration compared to acute [1] | further results |
| --- | --- | --- | --- | --- | --- | --- | --- | --- | --- | --- | --- | --- |
| COc1ccc(CN2C(=O)C(=O)c3cc(OC(F)(F)F)ccc32)cc1 [VU0238429] | pro-cognitive effect | 0.53 | 0.21 | 486 ± 178 ng/mL | 844 ± 235 ng/mL | 256 ± 32.1 ng/mL | 179 ± 25 ng/mL | 53% | 21% | ~ 40% | ca. 50% | Reversal of MK-801-induced deficits in the NOR test (recognition index) (MK-801-treated mice; 7 days with MK-801, 0.5 mg/kg): ineffective; Reversal of MK-801-induced deficits in the NOR test (recognition index) (MK-801-treated mice; 7 days with MK-801, 1 mg/kg): ineffective; Reversal of MK-801-induced deficits in the NOR test (recognition index) (MK-801-treated mice; 7 days with MK-801, 5 mg/kg): active; Reversal of MK-801-induced disruptions in NOR test by combined administration (MK-801-treated mice; F15599 0.05 mg/kg with VU0238429 1 mg/kg (subeffective doses)): reversed; Effect of combined administration on MK-801-induced memory deficits in the NOR test (MK-801-treated mice; F15599 with VU0238429): no effect; Kp at 30 min ([1]; acute, combination F15599 0.05 mg/kg + VU0238429 1 mg/kg, read-out: PFC Penetration): 0.36; Kp at 30 min ([1]; chronic (7 days with MK-801), combination F15599 0.05 mg/kg + VU0238429 1 mg/kg, read-out: PFC Penetration): 0.15; concentration at 30 min ([1]; plasma, acute, combination F15599 0.05 mg/kg + VU0238429 1 mg/kg, read-out: Plasma): 120 ± 13.9 ng/mL; concentration at 30 min ([1]; plasma, chronic (7 days with MK-801), combination F15599 0.05 mg/kg + VU0238429 1 mg/kg, read-out: Plasma): 35 ± 8.89 ng/mL; concentration at 30 min ([1]; prefrontal cortex (FC), acute, combination F15599 0.05 mg/kg + VU0238429 1 mg/kg, read-out: PFC): 43.1 ± 1.81 ng/mL; concentration at 30 min ([1]; prefrontal cortex (FC), chronic (7 days with MK-801), combination F15599 0.05 mg/kg + VU0238429 1 mg/kg, read-out: PFC): 5.13 ± 0.83 ng/mL; Fold higher penetration to the FC than to whole brain ([1]; FC penetration versus earlier whole-brain data): more than 6 times |
| CCOC(=O)N1CCC(NCCNC(=O)c2ccccc2C)CC1 [VU0357017] | pro-cognitive effect | 0.67 | 0.36 | 107 ± 7.65 ng/mL | 138 ± 14.9 ng/mL | 71.7 ± 4.69 ng/mL | 50.3 ± 4.62 ng/mL | 67% | 36% | more than 50% | ca. 50% | Reversal of MK-801-induced deficits in the NOR test (recognition index) (MK-801-treated mice; 7 days with MK-801, 0.15 mg/kg): ineffective; Reversal of MK-801-induced disruptions in NOR test by combined administration (MK-801-treated mice; F15599 0.05 mg/kg with VU0357017 0.15 mg/kg (subeffective doses)): reversed; Effect of combined administration on MK-801-induced memory deficits in the NOR test (MK-801-treated mice; F15599 with VU0357017): no effect; Kp at 30 min ([1]; acute, combination F15599 0.05 mg/kg + VU0357017 1 mg/kg, read-out: PFC Penetration): 0.31; Kp at 30 min ([1]; chronic (7 days with MK-801), combination F15599 0.05 mg/kg + VU0357017 0.15 mg/kg, read-out: PFC Penetration): 0.46; concentration at 30 min ([1]; plasma, acute, combination F15599 0.05 mg/kg + VU0357017 1 mg/kg, read-out: Plasma): 7.19 ± 0.24 ng/mL; concentration at 30 min ([1]; plasma, chronic (7 days with MK-801), combination F15599 0.05 mg/kg + VU0357017 0.15 mg/kg, read-out: Plasma): 5.13 ± 0.38 ng/mL; concentration at 30 min ([1]; prefrontal cortex (FC), acute, combination F15599 0.05 mg/kg + VU0357017 1 mg/kg, read-out: PFC): 2.25 ± 0.56 ng/mL; concentration at 30 min ([1]; prefrontal cortex (FC), chronic (7 days with MK-801), combination F15599 0.05 mg/kg + VU0357017 0.15 mg/kg, read-out: PFC): 2.34 ± 0.255 ng/mL |
